Measured values published in patent US20250127813A1, “COMBINATION DRUG” (OTSUKA PHARMACEUTICAL CO., LTD., priority 2021, published 2025).
Entries after “also recorded” stand apart in the source; their conditions may differ.

Tested on: NALM6-luc2
Description: 6-week-old NOG mice produced by In-Vivo Science Co., Ltd., were obtained, and tumor cells were intravenously transplanted into the mice at 7 weeks of age to prepare tumor-bearing mice. The day before the transplantation, busulfex (BSF) was intraperitoneally administered at 20 mg/kg. During the breeding period, the mice were housed with 5 mice per group and bred in a P2A breeding room set to a temperature of 24° C. (actual measurement: 19.7 to 25.0° C.), humidity of 50% (actual measurement: 38.6 to 58.5%), and illumination of 12 hours/day (8:00 a.m. to 8:00 p.m.). During the breeding period, the mice were allowed free access to radiation-sterilized solid feed for mice (CL-2, produced by Clea Japan, Inc.) and autoclave-sterilized tap water placed in a water bottle.
CD19 CAR-T cells were intravenously administered once according to the group constitution on the same day as grouping. The IAP antagonist also started to be administered on the same day as grouping and was orally or intravenously administered according to the group constitution table.
The evaluation period was set to 3 to 4 weeks. Grouping and pharmacological evaluation were performed based on tumor luminescence values as determined by IVIS (trademark). Luminescence value measurement by IVIS (trademark) and body weight measurement were performed twice a week.
For NALM6-luc2, after resuspension, a portion of the cell suspension was taken, dead cells were stained with AOPI Staining Solution, and the number of viable cells was counted with a blood cell measuring device. A cell suspension was prepared by diluting the cells with RPMI 1640 to 1×10^7 cells/mL, based on the measurement results of viable cell count of the cells. Similarly, in a low tumor volume system, a cell suspension was prepared by diluting the cells with serum-free RPMI 1640 to achieve a concentration of 1×10^6 cells/mL.
After the mice were retained using a retainer, a cell suspension was transplanted at 1×10^6 cells/0.1 mL/body using a 27G Myjector (1 mL, produced by Terumo Corporation) to the tail vein of each mouse with no anesthesia. In the low tumor volume system, a cell suspension at 1×10^5 cells/0.1 mL/body was transplanted.
In accordance with the dosing regimen shown in FIG. 6, NALM6-luc2 was transplanted the day after treating the […] with busulfex. On the third day after the transplantation, luminescence values were measured using the IVIS (trademark) Lumina X5 In-Vivo imaging system (produced by PerkinElmer, Co., Ltd.). Using the luminous values as an indicator and using SAS software R9.4 (produced by SAS Institute Japan), the mice were divided into groups of 5 mice each by the stratified random sampling method.
1) A suspension of CD19 CAR-T cells was administered to the tail vein at the time of grouping. For the dosage, the number of viable CD19 CAR-T cells was counted and a cell suspension prepared according to the group constitution table was administered once at 0.1 mL/body. For the administration, a Myjector syringe with a 27G needle was used.
5) Birinapant was intraperitoneally administered at a dose of 10 mL/kg according to the group composition table. Tolinapant, LCL161, and AT406 were orally administered at a dose of 10 mL/kg according to the group composition table using a sonde in the same manner. For intraperitoneal administration, an insulin syringe with a 26G needle was used in place of the sonde. For oral administration, a needle was used in place of the sonde to administer each drug.
VivoGlo™-luciferin (produced by Promega) was dissolved in D-PBS(−) to achieve a concentration of 30 mg/mL and then cryopreserved at −20° C. under light-shielded conditions. On the day of measurement, dissolved VivoGlo™-luciferin was diluted with an equivalent amount of D-PBS(−) and stored at room temperature under light-shielded conditions until use for testing. Based on the body weight measured in advance, VivoGlo™-luciferin was intraperitoneally administered in a volume of 10 mL/kg.

[1] = LCL161 30 mg/kg qw po + CD19 CAR-T 1×10^5 cells/body iv

CN[C@@H](C)C(=O)N[C@H](C(=O)N1CCC[C@H]1c1nc(C(=O)c2ccc(F)cc2)cs1)C1CCCCC1 [LCL161, reference compound]
death of mice under LCL161 alone (LCL161 30 mg/kg orally twice a week): at least half of the mice died
effect of LCL161 + 1×10^5 cells CD19 CAR-T compared with 1×10^6 cells CD19 CAR-T alone [1]: an effect equivalent to the effect achieved by using 1×10^6 cells of CD19 CAR-T alone was observed on day 14 and thereafter
highest efficacy of combined use of LCL161 compared with combined use of tolinapant [1]: lower than the efficacy achieved by the combined use of tolinapant
combination effect of LCL161 and CD19 CAR-T (LCL161 30 mg/kg qw po + CD19 CAR-T 1×10^5 cells/body iv, 30 mg/kg): a significant combination effect was observed on day 7 and thereafter; also recorded: showed a combination effect with CD19 CAR-T
toxicity of LCL161 (death, weight loss) in the combination test (LCL161 30 mg/kg qw po, combination test with CD19 CAR-T, 30 mg/kg): highly toxic; also recorded: at least half of the animals died due to LCL161; also recorded: showed such toxicity as to confirm weight loss and death
efficacy of LCL161 administered alone (LCL161 alone, 30 mg/kg orally twice a week): no effects were exhibited

CC[C@H](NC(=O)[C@H](C)NC)C(=O)N1C[C@@H](O)C[C@H]1Cc1c(-c2[nH]c3cc(F)ccc3c2C[C@@H]2C[C@H](O)CN2C(=O)[C@H](CC)NC(=O)[C@H](C)NC)[nH]c2cc(F)ccc12 [Birinapant, reference compound]
combination effect of birinapant and CD19 CAR-T compared to CD19 CAR-T alone (birinapant 12 mg/kg q3-4d ip + CD19 CAR-T 1×10^5 cells/body iv): did not increase antitumor effects
efficacy of birinapant administered alone (birinapant alone, 12 mg/kg, intraperitoneal administration twice a week): showed no efficacy

CN[C@@H](C)C(=O)N[C@H]1CN(C(=O)CC(C)C)CC[C@H]2CC[C@@H](C(=O)NC(c3ccccc3)c3ccccc3)N2C1=O [AT406, reference compound]
effect of AT406 + 1×10^5 cells CD19 CAR-T compared with 1×10^6 cells CD19 CAR-T alone (AT406 100 mg/kg qd po + CD19 CAR-T 1×10^5 cells/body iv): an effect equivalent to the effect achieved by 1×10^6 cells of CD19 CAR-T alone was observed on day 14 and thereafter
combination effect of AT406 and CD19 CAR-T (AT406 100 mg/kg qd po + CD19 CAR-T 1×10^5 cells/body iv, 100 mg/kg): a combination effect was observed on day 10 and thereafter; also recorded: showed a combination effect with CD19 CAR-T; also recorded: a combination effect profile similar to that of tolinapant
efficacy of AT406 administered alone (AT406 alone, 100 mg/kg, daily oral administration): showed no efficacy
